Columns and labels:
human TLR8 (hTLR8) = target: T1, human TLR8 (hTLR8) (Homo sapiens, UniProt Q9NR97); experiment: Human TLR8 agonist activity assay (measured in a similar manner); format: cell-based; conditions: HEK-Blue TLR cells, SEAP reporter, measured in a similar manner to TLR7; some values average of multiple measurements
T1 construct: expressed in transfected cells
T1 sequence (Q9NR97 27-1041): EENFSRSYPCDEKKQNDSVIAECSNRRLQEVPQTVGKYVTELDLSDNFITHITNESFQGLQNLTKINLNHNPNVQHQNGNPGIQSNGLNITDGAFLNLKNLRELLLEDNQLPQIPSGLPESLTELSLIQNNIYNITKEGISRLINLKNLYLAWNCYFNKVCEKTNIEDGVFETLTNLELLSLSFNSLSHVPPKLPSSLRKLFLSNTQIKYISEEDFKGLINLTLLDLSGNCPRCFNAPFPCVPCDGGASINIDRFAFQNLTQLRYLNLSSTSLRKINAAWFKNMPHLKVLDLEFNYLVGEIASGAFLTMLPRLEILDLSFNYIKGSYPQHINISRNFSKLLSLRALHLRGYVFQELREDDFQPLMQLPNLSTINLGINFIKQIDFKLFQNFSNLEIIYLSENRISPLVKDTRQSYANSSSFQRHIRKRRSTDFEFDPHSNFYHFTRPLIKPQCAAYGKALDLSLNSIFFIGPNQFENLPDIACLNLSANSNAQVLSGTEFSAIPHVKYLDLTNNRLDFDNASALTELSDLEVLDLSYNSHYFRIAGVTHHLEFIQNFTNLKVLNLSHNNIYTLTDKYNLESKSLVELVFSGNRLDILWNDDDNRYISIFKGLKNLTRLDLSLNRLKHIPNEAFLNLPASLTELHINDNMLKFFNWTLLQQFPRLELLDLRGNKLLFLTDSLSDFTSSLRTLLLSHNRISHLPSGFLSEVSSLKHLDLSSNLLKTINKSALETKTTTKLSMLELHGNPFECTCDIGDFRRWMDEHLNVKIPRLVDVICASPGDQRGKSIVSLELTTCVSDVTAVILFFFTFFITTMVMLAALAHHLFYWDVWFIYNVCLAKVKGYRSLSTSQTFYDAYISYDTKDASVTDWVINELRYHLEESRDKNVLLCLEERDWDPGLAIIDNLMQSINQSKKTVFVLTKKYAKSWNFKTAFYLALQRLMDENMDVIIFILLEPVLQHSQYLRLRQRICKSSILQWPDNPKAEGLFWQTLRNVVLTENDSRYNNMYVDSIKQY
Method: (§1) This procedure describes a method for assaying human TLR7 (hTLR7) and human TLR8 (hTLR8) agonist activity of the compounds disclosed herein.
HEK-Blue™ TLR7 cells were added to each well of a 384-well tissue-culture plate (15,000 cells per well) and incubated 16-18 h at 37° C., 5% CO2. Compounds (100 nL) were dispensed into wells containing the HEK-Blue™ TLR cells and the treated cells were incubated at 37° C., 5% CO2. After 18 h, ten microliters 5 of freshly prepared Quanti-Blue™ reagent (Invivogen) was added to each well and incubated for 30 min (37° C., […]). SLAP levels were measured using an Envision plate reader (OD=620 nm). […] Some of the reported activities were the average of multiple measurements.
TLR8 activity was measured in a similar manner.

human TLR7 (hTLR7) = target: T2, human TLR7 (hTLR7) (Homo sapiens, UniProt Q9NYK1); experiment: Human TLR7 agonist activity assay (HEK-Blue TLR7 SEAP reporter); format: cell-based; conditions: HEK-Blue TLR7 cells, 18 h incubation, Quanti-Blue, OD 620 nm, some values average of multiple measurements
T2 construct: host or cells: HEK-Blue TLR7 cells (engineered human embryonic kidney cells)
T2 sequence (Q9NYK1 27-1049): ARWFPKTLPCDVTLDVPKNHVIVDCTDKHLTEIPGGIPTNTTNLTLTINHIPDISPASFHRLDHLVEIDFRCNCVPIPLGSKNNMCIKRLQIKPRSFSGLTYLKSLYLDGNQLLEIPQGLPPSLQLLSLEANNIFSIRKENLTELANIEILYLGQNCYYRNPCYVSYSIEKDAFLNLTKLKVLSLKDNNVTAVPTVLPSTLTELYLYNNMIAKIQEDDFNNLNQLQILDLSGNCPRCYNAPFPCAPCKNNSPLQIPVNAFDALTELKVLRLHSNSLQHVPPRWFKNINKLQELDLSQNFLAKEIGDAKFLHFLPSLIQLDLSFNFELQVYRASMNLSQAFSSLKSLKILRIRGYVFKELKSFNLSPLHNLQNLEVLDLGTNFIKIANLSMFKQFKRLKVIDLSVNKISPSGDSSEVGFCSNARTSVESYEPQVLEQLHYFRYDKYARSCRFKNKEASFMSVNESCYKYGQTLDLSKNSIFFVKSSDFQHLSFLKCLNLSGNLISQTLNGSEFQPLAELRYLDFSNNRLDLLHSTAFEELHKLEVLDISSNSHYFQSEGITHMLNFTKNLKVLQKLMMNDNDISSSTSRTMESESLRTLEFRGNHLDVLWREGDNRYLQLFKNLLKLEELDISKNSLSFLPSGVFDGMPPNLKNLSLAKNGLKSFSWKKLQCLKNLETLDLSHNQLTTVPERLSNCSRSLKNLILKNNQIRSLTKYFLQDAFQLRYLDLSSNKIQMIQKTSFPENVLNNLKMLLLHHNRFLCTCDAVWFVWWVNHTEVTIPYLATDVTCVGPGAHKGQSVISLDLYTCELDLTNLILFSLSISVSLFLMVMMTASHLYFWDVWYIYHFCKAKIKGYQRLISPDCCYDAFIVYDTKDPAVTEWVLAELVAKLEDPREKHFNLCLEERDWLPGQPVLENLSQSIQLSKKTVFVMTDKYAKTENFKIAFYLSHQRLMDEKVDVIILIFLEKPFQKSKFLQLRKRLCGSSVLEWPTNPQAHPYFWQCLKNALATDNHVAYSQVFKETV
Method: as §1
HEK-Blue™ TLR7 cells were added to each well of a 384-well tissue-culture plate (15,000 cells per well) and incubated 16-18 h at 37° C., 5% CO2. Compounds (100 nL) were dispensed into wells containing the HEK-Blue™ TLR cells and the treated cells were incubated at 37° C., 5% CO2. After 18 h, ten microliters 5 of freshly prepared Quanti-Blue™ reagent (Invivogen) was added to each well and incubated for 30 min (37° C., […]). SLAP levels were measured using an Envision plate reader (OD=620 nm). The half maximal effective concentration values (ECSO; compound concentration which induced a response halfway between the assay baseline and maximum) were calculated. Some of the reported activities were the average of multiple measurements.

Structure (SMILES) | EC50 (human TLR8 (hTLR8)) | EC50 (human TLR7 (hTLR7))
CCCCN(CCO)c1nc(N)nc2cn(Cc3ccc(CNCCOC)cc3OC)nc12 [Compound 10] | 1450 nM | 1330 nM
CCCCN(CCO)c1nc(N)nc2cn(Cc3ccc(CN4CCN(C)CC4)cc3OC)nc12 [Compound 13] | 1130 nM | 733 nM
CCCCN(CCO)c1nc(N)nc2cn(Cc3c(F)cc(C4=CCNCC4)cc3OC)nc12 [Compound 15] | 2510 nM | 688 nM
CCCCN(CCO)c1nc(N)nc2cn(Cc3c(F)cc(C4CCNCC4)cc3OC)nc12 [Compound 16] | 2500 nM | 749 nM
CCCCN(CCO)c1nc(N)nc2cn(Cc3ccc(CN4CCN(CCO)CC4)cc3OC)nc12 [Compound 19] | 1470 nM | 696 nM
CCCCN(CCO)c1nc(N)nc2cn(Cc3ccc(CNC4(C)COC4)cc3OC)nc12 [Compound 21] | 834 nM | 587 nM
CCCCN(CCO)c1nc(N)nc2cn(Cc3ccc(CNC[C@H]4C[C@H](O)C4)cc3OC)nc12 [Compound 23] | 1900 nM | 1910 nM
CCCCN(CCO)c1nc(N)nc2cn(Cc3ccc(CNC4COC4)cc3OC)nc12 [Compound 26] | 1140 nM | 828 nM
CCCCN(CCO)c1nc(N)nc2cn(Cc3ccc(CN4CC5(CC(O)C5)C4)cc3OC)nc12 [Compound 27] | 1950 nM | 1970 nM
CCCCN(CCO)c1nc(N)nc2cn(Cc3ccc(CNC4CC(O)C4)cc3OC)nc12 (stereo not shown) [Compound 29] | 2500 nM | 2500 nM
CCCCN(CCO)c1nc(N)nc2cn(Cc3ccc(CN4CC5(C4)CN(C(C)C)C5)cc3OC)nc12 [Compound 30] | 1620 nM | 1410 nM
CCCCN(CCO)c1nc(N)nc2cn(Cc3ccc(CNC(C)(C)CO)cc3OC)nc12 [Compound 32] | 1200 nM | 2500 nM
CCCCN(CCO)c1nc(N)nc2cn(Cc3c(F)cc(C4CCN(CCO)CC4)cc3OC)nc12 [Compound 35] | 1850 nM | 551 nM
CCCCN(CCO)c1nc(N)nc2cn(Cc3c(F)cc(C4CCN(CC(N)=O)CC4)cc3OC)nc12 [Compound 41] | 858 nM | 251 nM
CCCCN(c1nc(N)nc2cn(Cc3ccc(CN4CCCCC4)cc3OC)nc12)C(C)CO (stereo not shown) [Compound 50] | 949 nM | 374 nM
CCCCN(CCO)c1nc(N)nc2cn(Cc3ccc(CN[C@H]4CCOC4)cc3OC)nc12 [Compound 52] | 1070 nM | 1190 nM

The next molecules have a lower EC50 (human TLR8 (hTLR8)) than those just listed; values first:

EC50 (human TLR8 (hTLR8)) | EC50 (human TLR7 (hTLR7)) | Structure (SMILES)
727 nM | 732 nM | CCCCN(CCO)c1nc(N)nc2cn(Cc3ccc(CN4C[C@H]5COC[C@H]5C4)cc3OC)nc12 [Compound 11]
477 nM | 661 nM | CCCCNCc1ccc(Cn2cc3nc(N)nc(N(CCO)CCCC)c3n2)c(OC)c1 [Compound 12]
745 nM | 1150 nM | CCCCN(CCO)c1nc(N)nc2cn(Cc3ccc(CNCC)cc3OC)nc12 [Compound 17]
447 nM | 380 nM | CCCCN(CCO)c1nc(N)nc2cn(Cc3ccc(CN4CCOCC4)cc3OC)nc12 [Compound 18]
705 nM | 1180 nM | CCCCN(CCO)c1nc(N)nc2cn(Cc3ccc(CN4CC(O)C4)cc3OC)nc12 [Compound 20]
547 nM | 614 nM | CCCCN(CCO)c1nc(N)nc2cn(Cc3ccc(CN[C@H]4C[C@H]5COC[C@H]54)cc3OC)nc12 [Compound 22]
360 nM | 430 nM | CCCCN(CCO)c1nc(N)nc2cn(Cc3ccc(CNC4CCOC4)cc3OC)nc12 (stereo not shown) [Compound 25]
266 nM | 284 nM | CCCCN(CCO)c1nc(N)nc2cn(Cc3ccc(CN4CC5(CCO5)C4)cc3OC)nc12 [Compound 28]
524 nM | 548 nM | CCCCN(CCO)c1nc(N)nc2cn(Cc3ccc(CNC(C)(C)COC)cc3OC)nc12 [Compound 33]
525 nM | 144 nM | CCCCN(CCO)c1nc(N)nc2cn(Cc3c(F)cc(C4CCN(CC(C)(C)O)CC4)cc3OC)nc12 [Compound 36]
516 nM | 176 nM | CCCCN(CCO)c1nc(N)nc2cn(Cc3c(F)cc(C4CCN(C5CCOCC5)CC4)cc3OC)nc12 [Compound 37, 2-((5-amino-2-(2-fluoro-6-methoxy-4-(1-(tetrahydro-2H-pyran-4-yl)piperidin-4-yl)benzyl)-2H-pyrazolo[4,3-d]pyrimidin-7-yl)(butyl)amino)ethan-1-ol]
437 nM | 396 nM | CCCCN(CCO)c1nc(N)nc2cn(Cc3c(F)cc(C4CCN(C5CC6(CCC6)C5)CC4)cc3OC)nc12 [Compound 39]
801 nM | 392 nM | CCCCN(CCO)c1nc(N)nc2cn(Cc3c(F)cc(C4CCN(C(C)C)CC4)cc3OC)nc12 [Compound 40]
496 nM | 101 nM | CCCCN(CCO)c1nc(N)nc2cn(Cc3c(F)cc(C4CCN(CCS(C)(=O)=O)CC4)cc3OC)nc12 [Compound 42]
705 nM | 825 nM | CCCCCN(CCO)c1nc(N)nc2cn(Cc3ccc(CNC4CCC4)cc3OC)nc12 [Compound 44]
205 nM | 280 nM | CCCCNCc1ccc(Cn2cc3nc(N)nc(N(CCO)CCCC)c3n2)c2ncccc12 [Compound 45]
360 nM | 326 nM | CCCCN(CCO)c1nc(N)nc2cn(Cc3ccc(CNC4CCC4)c4cccnc34)nc12 [Compound 46, 2-((5-Amino-2-((5-((cyclobutylamino)methyl)quinolin-8-yl)methyl)-2H-pyrazolo[4,3-d]pyrimidin-7-yl)(butyl)amino)ethan-1-ol]
538 nM | 186 nM | CCCCN(CCO)c1nc(N)nc2cn(Cc3c(F)cc(C4CCN(C)CC4)cc3OC)nc12 [Compound 47]
227 nM | 182 nM | CCCCN(CCO)c1nc(N)nc2cn(Cc3ccc(CN4CC(CCOC)C4)c4cccnc34)nc12 [Compound 48]

From patent publication US20250282776A1, “Bicyclic TLR7 Agonists and Uses Thereof” (Bristol-Myers Squibb Company, priority 2024, published 2025)
